Measurements reported in PubChem BioAssay AID2296 (NMMLSC, 2010).

Target: Regulator of G-protein signaling 7 (Homo sapiens) (UniProt P49802)
Experiment: small molecules altering RGS7 interaction with Galphao – biochemical, multiplexed bead flow cytometry, SAR compounds, SAR follow-up (AID 2296)
Settings: bead-based flow cytometry, AF488-Galphao binding to RGS7

Regulator of G-protein signaling 7 (Homo sapiens), sequence (P49802 whole entry, looked up): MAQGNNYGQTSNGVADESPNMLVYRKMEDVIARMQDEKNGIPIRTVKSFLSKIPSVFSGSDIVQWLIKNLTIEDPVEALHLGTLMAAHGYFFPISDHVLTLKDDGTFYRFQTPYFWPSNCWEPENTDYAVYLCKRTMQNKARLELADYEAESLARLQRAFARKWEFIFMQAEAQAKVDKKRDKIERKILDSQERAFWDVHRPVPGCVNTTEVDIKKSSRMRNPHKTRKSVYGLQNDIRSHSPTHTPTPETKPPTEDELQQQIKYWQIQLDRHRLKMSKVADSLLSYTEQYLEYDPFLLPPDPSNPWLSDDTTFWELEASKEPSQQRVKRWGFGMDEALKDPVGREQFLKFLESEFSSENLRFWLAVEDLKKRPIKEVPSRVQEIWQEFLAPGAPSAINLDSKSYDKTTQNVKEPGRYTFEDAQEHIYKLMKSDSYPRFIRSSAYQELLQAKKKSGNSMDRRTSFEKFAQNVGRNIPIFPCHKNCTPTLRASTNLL

Row | SMILES | EC50
1 | NS(=O)(=O)c1ccc(N/N=C/c2ccc(O)c(O)c2O)c([N+](=O)[O-])c1 | 141 nM

Same assay, conditions: bead-based flow cytometry, AF488-Galphao binding to RGS7; measured here: Ki from EC50 fit

Row | SMILES | Ki
2 | CCC(=O)NC(c1ccc(C)cc1)c1cc([N+](=O)[O-])c2cccnc2c1O (stereo not drawn) | 3750 nM
3 | CN1CCN(C2=C(Cl)C(=O)C(c3cnc(N4CCCCC4)s3)=C(Cl)C2=O)CC1 | 70 nM
4 | CCN(CC)S(=O)(=O)c1cccc(C(=O)N/N=C/c2ccc(O)c(O)c2O)c1 | 320 nM
5 | O=C(Cc1csc(N2CCOCC2)n1)N/N=C/c1ccc(O)c(O)c1O | 360 nM
6 | Cc1[nH]n(-c2ccccc2)c(=S)c1C=NCCCN=Cc1c(C)[nH]n(-c2ccccc2)c1=S | 1870 nM
7 | NS(=O)(=O)c1ccc(N/N=C/c2ccc(O)c(O)c2O)c([N+](=O)[O-])c1 | 120 nM
8 | CN=c1scc(C)n1/N=C/c1ccc(O)c(O)c1O | 210 nM
9 | CC1(C)OC(=O)C(=Cc2ccc(-c3ccc(S(N)(=O)=O)cc3)o2)C(=O)O1 | 1600 nM
10 | CCN=c1scc(C)n1/N=C/c1ccc(O)c(O)c1O | 380 nM
11 | O=C1C(Cl)=C(N2CCCCC2)C(=O)C(Cl)=C1c1cnc(N2CCCCC2)s1 | 130 nM
12 | COc1ccc(C2=CC(=O)C=CC2=O)cc1 | 300 nM
13 | Nc1c(C(=O)NCC2CCCO2)sc2nc3c(c(-c4ccco4)c12)CC/C3=C/c1ccco1 (stereo not drawn) | 120 nM
